Reference: patent US6241963A, “Dopamine and serotonin transporter ligands and imaging agents” (priority 1996, dated 2001)
“And” between values parts separate entries of the source, which are not always exact repeats. Equal entries are not always repeated. “Also recorded” adds a separate entry of the source.

Columns and labels:
dopamine transporters [1] = molecular target: dopamine transporters (Rattus norvegicus, UniProt P23977); assay: In vitro autoradiography of rat brain sections; type: binding, Male Sprague-Dawley rats; details: rat brain coronal sections
dopamine transporters (Rattus norvegicus, UniProt P23977), sequence (P23977 whole entry): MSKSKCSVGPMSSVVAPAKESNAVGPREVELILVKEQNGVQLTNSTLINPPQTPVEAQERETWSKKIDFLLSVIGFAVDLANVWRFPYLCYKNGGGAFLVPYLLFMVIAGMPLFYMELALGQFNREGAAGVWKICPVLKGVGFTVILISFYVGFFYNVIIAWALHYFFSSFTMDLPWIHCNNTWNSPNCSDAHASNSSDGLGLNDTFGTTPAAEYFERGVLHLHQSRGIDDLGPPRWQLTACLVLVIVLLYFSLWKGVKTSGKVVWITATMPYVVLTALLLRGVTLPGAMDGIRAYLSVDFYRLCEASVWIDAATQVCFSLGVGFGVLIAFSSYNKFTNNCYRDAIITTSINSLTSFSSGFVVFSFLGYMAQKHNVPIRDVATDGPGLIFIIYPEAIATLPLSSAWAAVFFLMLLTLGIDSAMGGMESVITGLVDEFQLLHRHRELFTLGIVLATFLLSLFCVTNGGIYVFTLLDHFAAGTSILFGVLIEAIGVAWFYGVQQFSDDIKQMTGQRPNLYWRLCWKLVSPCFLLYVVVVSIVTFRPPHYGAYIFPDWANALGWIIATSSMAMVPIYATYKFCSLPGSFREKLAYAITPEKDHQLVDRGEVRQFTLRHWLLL
Method: Male Sprague-Dawley rats ([…]) were sacrificed by decapitation, and the brains were removed, placed in OTC embedding medium (Miles Laboratory, Elkhart, Ind.) frozen in powdered dry ice. After equilibration to -15° C., 20 μm coronal sections were sliced on a cryostat (Hacker Instruments, Fairfield, N.J.), thaw mounted onto gelatin-coated slides, desiccated at 4° C. for 3 hours and kept at -70° C. until use. Prior to the experiment, the slides were dried at room temperature and preincubated for 30 minutes in buffer containing 50 mM Tris-HCl (pH 7.4, 120 mM NaCl). The slides were then incubated for 2 hours in preincubation buffer and the [^99m Tc] compound 3.25 (385,000 cpm/200 μL) in a coplan jar, washed for 1 hour in cold Tris buffer, with one change of buffer, dipped in ice-cold water to remove buffer salts and allowed to dry at room temperature. Nonspecific binding was determined in the presence of 1 μM IPT. These slides were simultaneously exposed to DuPont x-ray film in an autoradiographic cassette for 18 hours. The exposed film was developed with a Kodak automatic film processor.

dopamine transporter = assay: Blocking studies in rats (pretreatment or co-injection with competing agent); type: in vivo, Male Sprague-Dawley rats; details: for ST/CB ratio after pretreatment with haldol (haloperidol) / ST/CB ratio after pretreatment with β-CIT (RTI-55): 60 min, pretreated 1 mg/kg iv, 5 min before tracer; for ST/CB ratio, control rats of blocking study: 60 min post-injection, no pretreatment
Method: (§1) Regional brain distribution in rats was obtained after an injection of 1.19a, 1.19b, 1.20a, 1.20b or 1.21. Samples from different brain regions (cortex, striatum, hippocampus, and cerebellum) were dissected, weighed and counted, and the percentage dose per gram of sample was calculated by comparing the sample counts with the count of the diluted initial dose. The uptake ratio of each region was obtained by dividing the percentage dose per gram of that region by that of the cerebellum. For blocking studies, rats were injected with either β-CIT or haloperidol (iv, 1 mg/Kg) 5 min prior to injection of 1.19a. The rats were dissected and brain tissue samples were counted as described above. The specific uptake of the compound was expressed as ratio of ST/CB (% dose/g of striatum divided by the same of cerebellum).
as §1, with “3.24 to 3.34.” for “1.19a, 1.19b, 1.20a, 1.20b or 1.21.”, “3.25.” for “1.19a.”, “above.” for “above. The specific uptake of the compound was expressed as ratio of ST/CB (% dose/g of striatum divided by the same of cerebellum).”

[2] = rat, cited from earlier work
dopamine transporters [3] = assay: SPECT imaging in a baboon, co-registered with MRI; type: in vivo; details: 60-90 min post iv injection of 9 mCi
Method: A baboon (~15 kg) was the subject of a SPECT imaging study. Prior to imaging, the animal was fasted, immobilized with ketamine (10-20 mg/kg, i.m.) and xylazine (2-3 mg/kg, i.m.), intubated and maintained on a 1.5-2.0% isofluorane/98.5% oxygen mixture (flow rate of 200-500 cc/min). […] Body temperature was maintained using a hot water circulating heating pad and was monitored with a rectal thermometer. The animal's head was immobilized using a vacuum-packed bean-bag device that hardens upon evacuation when molded around the head. No-carrier-added [^99m Tc]TRODAT-1 (1.19a; 9 mCi) was administered as an intravenous bolus in the saphenous vein of the baboon. Immediately after injection, sequential 5 minute per frame dynamic SPECT scans were acquired on a triple-headed Picker Prism 3000 camera (FWHM: 7 mm) equipped with fan beam collimators for 2 hours. The acquisition parameters were a 20% energy window at 140 KeV, 120 projection angles over 360 degrees, a 128×128 matrix, and a zoom factor of 1.78 in a slice thickness of 2 mm. The projection data was reconstructed with a count dependent 3-D Wiener filter. Chang's first order correction method was used to compensate for attenuation. Magnetic resonance images (MRI) of the baboon brain were acquired with a 1.5 Tesla machine (GE Medical Systems, Milwaukee, Wis.). […]

| Structure (SMILES) | Autoradiographic regional labeling (dopamine transporters [1]) | ST/CB ratio after pretreatment with haldol (haloperidol) (dopamine transporter) | ST/CB ratio after pretreatment with β-CIT (RTI-55) (dopamine transporter) | ST/CB ratio, control rats of blocking study (dopamine transporter) | Initial brain uptake at 2 minutes ([2]; 2 min post iv injection (Meegalla 1995)) | ST/CB ratio at 60 minutes ([2]; 60 min after iv injection (Meegalla 1995)) | SPECT localization in brain (dopamine transporters [3]) |
| --- | --- | --- | --- | --- | --- | --- | --- |
| COC(=O)C1C(c2ccc(Cl)cc2)CC2CCC1N2CC[S][99Tc-]12(=[O])[S]CC[N+]1(C)CC[S]2 [Compound 3.25, [^99m Tc] technetium, [methyl 3-(4-chlorophenyl)-8-(2-mercaptoethyl)-8-azabicyclo [3.2.1]octane-2-carboxylato-S][[2,2'-(methylimino)bis[ethanethiolato]](2-)-N,S,S']oxo] | elevated labeling in striatum, major islands of Calleja and olfactory tubercle regions; also recorded: intense labeling in caudate putamen and olfactory tubercle; also recorded: localized in caudate putamen and olfactory tubercle | 2.6 | 1.0 | 2.6 | 0.1% | 3.50 |  |
| CN1[C@H]2CC[C@@H]1[C@@H](C[N+]13CC[S][99Tc-]14(=[O])[S]CC[N]4CC3)[C@@H](c1ccc(Cl)cc1)C2 (stereo partly shown) [Compound 1.19a] |  | 2.6 | 1.0 | 2.66 and 2.6 |  |  | excellent consistence with the expected localization of this agent in caudate and putamen areas; also recorded: A high accumulation |
